We go through two compounds from ChEMBL document CHEMBL1151632, “15-Deacetylsergeolide, a potent antileukemic quassinoid from Picrolemma pseudocoffea” (1984).

For orientation: T/C means the ratio of treated to control.

The subject of assay [1] is P388. Description: In vivo cytotoxicity against mouse P388 cells at 0.63 mg/kg relative to control. Type of assay: functional.
The test system of assay [2] is P388. Description: In vivo cytotoxicity against mouse P388 cells at 1.25 mg/kg relative to control. Type of assay: functional.

`COC(=O)[C@]12OC[C@]34[C@H]([C@@H](O)[C@@H]1O)[C@@]1(C)C=C5OC(=O)C=C5[C@@H](C)[C@@H]1C[C@H]3OC(=O)[C@H](O)[C@@H]24` [DEACETYLSERGEOLIDE] registered a T/C in the assay with P388 [1] of 150%.

In the assay on P388 [2], `COC(=O)[C@]12OC[C@]34[C@H]([C@@H](O)[C@@H]1O)[C@@]1(C)C=C5OC(=O)C=C5[C@@H](C)[C@@H]1C[C@H]3OC(=O)[C@H](OC(C)=O)[C@@H]24` [SERGEOLIDE] had a T/C of 169%.
